Measurements as given in the NIST ThermoML archive (doi:10.1021/je300737t).

What was measured:
[1] = xn = mol fraction of the nth substance listed; conditions: 101 kPa, Liquid; for mass density: Pycnometric method
[2] = 101 kPa, Liquid; for mass density: Pycnometric method

CCCCOCCO [2-butoxyethan-1-ol] + O
[1]
Conditions	mass density, 298.15 K [kg/m3]	mass density, 303.15 K [kg/m3]	mass density, 308.15 K [kg/m3]	mass density, 313.15 K [kg/m3]	viscosity, 298.15 K [mPa·s]	viscosity, 303.15 K [mPa·s]	viscosity, 308.15 K [mPa·s]	viscosity, 313.15 K [mPa·s]
x1 = 0.017	993.26	990.82	988.89	985.94	1.284	1.131	0.9936	0.8871
x1 = 0.037	986.46	982.92	980.38	977.64	1.849	1.622	1.465	1.302
x1 = 0.061	976.33	974.23	971.37	968.64	2.45	2.161	1.916	1.754
x1 = 0.092	967.1	964.31	961.45	958.48	2.998	2.635	2.334	2.054
x1 = 0.132	948.1	944.74	941.59	937.57	3.918	3.394	2.921	2.539
x1 = 1	896.16	892.74	888.88	884.29	2.782	2.499	2.206	1.946

CCCCOCCO [2-butoxyethan-1-ol]
[2]
Conditions	mass density [kg/m3]	viscosity [mPa·s]
298.15 K	896.16	2.782
303.15 K	892.74	2.499
308.15 K	888.88	2.206
313.15 K	884.29	1.946
